{"source": "patent US11370774B2", "about": "“Substituted benzofuran, benzopyrrole, benzothiophene, and structurally related complement inhibitors” (BioCryst Pharmaceuticals, Inc., priority 2018, dated 2022)"}
{"biological_target": "Factor D (Homo sapiens (Human), UniProt P00746)", "sequence (P00746 26-253)": "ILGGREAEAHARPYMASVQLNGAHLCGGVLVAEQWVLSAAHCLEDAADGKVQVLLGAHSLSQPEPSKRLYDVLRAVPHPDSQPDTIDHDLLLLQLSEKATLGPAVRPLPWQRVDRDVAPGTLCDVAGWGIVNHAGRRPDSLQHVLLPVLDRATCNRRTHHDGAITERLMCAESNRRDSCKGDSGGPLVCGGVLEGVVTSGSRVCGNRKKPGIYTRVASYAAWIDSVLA", "experiment": "Factor D esterolytic assay (Z-Lys-SBzl substrate, DTNB, 405 nm)", "type": "biochemical", "settings": "Z-Lys-SBzl 1.29 mM, pH 7.5, 10% DMSO, tested a minimum of three times, read-out: Measured Ki (IC50) Value for Compounds: IC50", "method_in_brief": "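Human Factor D ([…]) with 1.29 mM Z-Lys-SBzl in 100 mM HEPES, 500 mM NaCl, pH 7.5, 10% DMSO; substrate added immediately or after room-temperature preincubation. Released thiol reacted with DTNB, rate followed at 405 nm for 600 sec, 690 nm background subtracted. IC50 from percent inhibition versus uninhibited rate, n≥3.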", "units": {"IC50": "µM"}}
{"smiles": "COc1ccc(CC(=O)O)c(OCc2cc(-c3ccnc(CN)c3F)c3occ(C(F)(F)F)c3c2)c1", "note": "[Compound 498c, 2-(2-((7-(2-(aminomethyl)-3-fluoropyridin-4-yl)-3-(trifluoromethyl)benzofuran-5-yl)methoxy)-4-methoxyphenyl)acetic acid]", "IC50": "< 1"}
{"smiles": "NCc1cccc(-c2cc(COc3ccccc3CC(=O)O)cc3nc[nH]c23)c1", "note": "[Compound 167e, 2-(2-((7-(3-(aminomethyl)phenyl)-1H-benzo[d]imidazol-5-yl)methoxy)phenyl)acetic acid]", "IC50": "< 1"}
{"smiles": "NCc1cccc(-c2cc(COc3ccccc3CC(=O)O)cc3c2ccn3CC2CC2)c1F", "note": "[Compound 149b, 2-(2-((4-(3-(aminomethyl)-2-fluorophenyl)-1-(cyclopropylmethyl)-1H-indol-6-yl)methoxy)phenyl)acetic acid]", "IC50": "< 1"}
{"smiles": "CC(=O)NC(C(=O)O)c1ccccc1OCc1cc(-c2cccc(CN)c2)c2occc2c1", "note": "(stereo not shown) [Compound 222f, 2-acetamido-2-(2-((7-(3-(aminomethyl)phenyl)benzofuran-5-yl)methoxy)phenyl)acetic acid]", "IC50": "< 1"}
{"smiles": "Cc1c[nH]c2cc(C(=O)Nc3ccccc3CC(=O)O)cc(-c3cccc(CN)c3)c12", "note": "[Compound 81d, 2-(2-(4-(3-(aminomethyl)phenyl)-3-methyl-1H-indole-6-carboxamido)phenyl)acetic acid]", "IC50": "> 10"}
{"smiles": "CC(C)Cc1cc2cc(COc3ccccc3CC(=O)O)cc(-c3ccnc(CN)c3)c2o1", "note": "[Compound 219c, 2-(2-((7-(2-(aminomethyl)pyridin-4-yl)-2-isobutylbenzofuran-5-yl)methoxy)phenyl)acetic acid]", "IC50": "< 1"}
{"smiles": "NCc1cccc(-c2cc(COc3cc(CN)ccc3CC(=O)O)cc3cc(CO)oc23)c1", "note": "[Compound 446c, 2-(4-(aminomethyl)-2-((7-(3-(aminomethyl)phenyl)-2-(hydroxymethyl)benzofuran-5-yl)methoxy)phenyl)acetic acid]", "IC50": "< 1"}
{"smiles": "NCc1cccc(-c2cc(COc3ccc4ccccc4c3CC(=O)O)cc3ccoc23)c1", "note": "[Compound 400e, 2-(2-((7-(3-(aminomethyl)phenyl)benzofuran-5-yl)methoxy)naphthalen-1-yl)acetic acid]", "IC50": "< 1"}
{"smiles": "COc1ccc(NCc2cc3cc(COc4ccccc4CC(=O)O)cc(-c4cccc(CN)c4)c3o2)cc1", "note": "[Compound 280c, 2-(2-((7-(3-(aminomethyl)phenyl)-2-(((4-methoxyphenyl)amino)methyl)benzofuran-5-yl)methoxy)phenyl)acetic acid]", "IC50": "< 1"}
{"smiles": "NCc1cccc(-c2cc(COc3ncccc3CC(=O)O)cc3ccoc23)c1", "note": "[Compound 231c, 2-(2-((7-(3-(aminomethyl)phenyl)benzofuran-5-yl)methoxy)pyridin-3-yl)acetic acid]", "IC50": "< 1"}
